# Laboratory results as given in patent publication EP0060077A1, “Beta-lactam antibiotics, their preparation and use” (BEECHAM GROUP PLC, priority 1981, dated 1982).
# Where two headings read alike, the source gives them in different places.
# What was measured:
# [1] = Tissue stability in human kidney homogenate (comparable test); format: in vitro ADME; conditions: relative to MM13902 as standard (1.0)
# Procedure: (§3) A preparation of 2% mouse kidney homogenate was mixed with equal volumes of a 200 µg/ml solution of the antibiotic to be tested. The stability of the antibiotic at 37°C was studied by removal of aliquots and subjecting them to high pressure liquid chromatographic analysis. The values are given in figures relative to that obtained for MM13902 which is taken as a standard (1.0). Values greater than 1.0 reflect the fold increase in stability relative to MM13902.
# [2] = Tissue stability in mouse kidney homogenate; format: in vitro ADME; conditions: 2% mouse kidney homogenate mixed with equal volume of 200 µg/ml antibiotic, 37°C, HPLC; relative to MM13902 as standard (1.0)
# Procedure: as §3
# Serratia marcescens US32 = assay: MIC (Broth); format: cell-based
# Source text: (§1) MIC DATA (Broth) for sodium (5RS,6RS)-4,4-dimethyl-6- [(1SR)-1-hydroxyethyl]-3-(pyrimidin-2-ylsulphinyl)-7-oxo-1-azabicyclo[3.2.0]hept-2-ene-Z-carboxylate (27)
# K. aeogenes BA 9J R+ = assay: MIC (Broth); format: cell-based
# Source text: as §1
# E. coli JT39 [E96] = assay: MIC (Broth); format: cell-based; conditions: Escherichia coli
# Source text: as §1
# E. coli JT410 C4 = assay: MIC (Broth); format: cell-based; conditions: Escherichia coli, JT410C4
# Source text: as §1
# E. coli JT 2074 = assay: MIC (Broth); format: cell-based; conditions: Escherichia coli, JT2074
# Source text: as §1
# E. cloacae N1 [T753] = assay: MIC (Broth); format: cell-based; conditions: Enterobacter cloacae
# Source text: as §1
# E. coli 0111 [E8] = assay: MIC (Broth); format: cell-based; conditions: Escherichia coli
# Source text: as §1
# P. mirabilis 977 = assay: MIC (Broth); format: cell-based; conditions: Proteus mirabilis
# Source text: (§2) MIC DATA (Broth) For sodium (5RS,6RS)-3-[(Z)-2-carba- moylethenylthio)-4,4-dimethyl-6-[(1SR)-1-hydroxyethyl]-7-oxo-l-azabicyclo[3.2.0]hept-2-en-2-carboxylate (32)
# as §1
# P. rettgeri Wm16 = assay: MIC (Broth); format: cell-based; conditions: Providencia rettgeri
# Source text: as §2, §1
# S. aureus Oxford = assay: MIC (Broth); format: cell-based; conditions: Staphylococcus aureus
# Source text: as §2, §1
# K. aerogenes A = assay: MIC (Broth); format: cell-based; conditions: Klebsiella aerogenes
# Source text: as §2, §1
# C. freundii E8 = assay: MIC (Broth); format: cell-based; conditions: Citrobacter freundii
# Source text: as §2, §1
# S. aureus Russell = assay: MIC (Broth); format: cell-based; conditions: Staphylococcus aureus
# Source text: as §2, §1
# P. morganii 1580 = assay: MIC (Broth); format: cell-based; conditions: Morganella morganii
# Source text: as §2, §1
# B. subtilis A = assay: MIC (Broth); format: cell-based; conditions: Bacillus subtilis
# Source text: as §2, §1
# S. sonnei MB11 1967 = assay: MIC (Broth); format: cell-based; conditions: Shigella sonnei, MB111967
# Source text: as §2, §1
# S. aureus 1517 = assay: MIC (Broth); format: cell-based; conditions: Staphylococcus aureus
# Source text: as §2, §1
# P. vulgaris W091 = assay: MIC (Broth); format: cell-based; conditions: Proteus vulgaris
# Source text: as §2, §1
# E. coli ESS = assay: MIC (Broth); format: cell-based; conditions: Escherichia coli
# Source text: as §2, §1
# S. typhimurium CT10 = assay: MIC (Broth); format: cell-based; conditions: Salmonella enterica
# Source text: as §2, §1
# S. pyogenes CN10 = assay: MIC (Broth); format: cell-based; conditions: Streptococcus pyogenes
# Source text: as §2
# S. aureus MB9 = assay: MIC (Broth); format: cell-based; conditions: Staphylococcus aureus
# Source text: as §2
# K. aerogenes T767 = assay: MIC (Broth); format: cell-based; conditions: Klebsiella aerogenes
# Source text: as §2
# E. coli JT39 = assay: MIC (Broth); format: cell-based; conditions: Escherichia coli
# Source text: as §2
# E. cloacae T753 = assay: MIC (Broth); format: cell-based; conditions: Enterobacter cloacae
# Source text: as §2
# E. coli E96 = assay: MIC (Broth); format: cell-based; conditions: Escherichia coli
# Source text: as §2
# K. aerogenes Ba95 = assay: MIC (Broth); format: cell-based; conditions: Klebsiella aerogenes
# Source text: as §2
# E. cloacae N1 = assay: MIC (Broth); format: cell-based; conditions: Enterobacter cloacae
# Source text: as §2
# E. coli E8 = assay: MIC (Broth); format: cell-based; conditions: Escherichia coli
# Source text: as §2
# E. coli 0111 = assay: MIC (Broth); format: cell-based; conditions: Escherichia coli
# Source text: as §2
# S. pneumoniae CN 33 = assay: MIC (Broth); format: cell-based; conditions: Streptococcus pneumoniae, CN33
# Source text: as §2
smiles,measurement,setting,value
"CC(=O)N/C=C/SC1=C(C(=O)O)N2C(=O)[C@@H]([C@H](C)OS(=O)(=O)O)[C@H]2C1 [MM13902, reference compound]",Relative Stability,[1],1.1
same,Relative Stability,[2],1.4
"C[C@H](O)[C@@H]1C(=O)N2C(C(=O)[O-])=C([S+]([O-])c3ncccn3)C(C)(C)[C@@H]12.[Na+] (mixture of isomers) [Example 22, Sodium (5RS,6RS)-4,4-dimethyl-6-((1SR)-1-hydroxyethyl]-3-(pyrimidin-2-ylsulphinyl)-7-oxo-1-azabicyclo(3.2.0]hept-2-en-2-carboxylate]",MIC,Serratia marcescens US32,100 µg/mL
same,MIC,K. aeogenes BA 9J R+,25 µg/mL
same,MIC,E. coli JT39 [E96],50 µg/mL
same,MIC,E. coli JT410 C4,25 µg/mL
same,MIC,E. coli JT 2074,25 µg/mL
same,MIC,E. cloacae N1 [T753],25 µg/mL
same,MIC,E. coli 0111 [E8],25 µg/mL
same,MIC,"P. mirabilis 977; Broth, P. mirabilis 977, read-out: MIC",25 µg/mL
same,MIC,"P. rettgeri Wm16; Broth, P. rettgeri Wm16, read-out: MIC",25 µg/mL
same,MIC,"S. aureus Oxford; Broth, S. aureus Oxford, read-out: MIC",0.8 µg/mL
same,MIC,"K. aerogenes A; Broth, K. aerogenes A, read-out: MIC",50 µg/mL
same,MIC,"C. freundii E8; Broth, C. freundii E8, read-out: MIC",25 µg/mL
same,MIC,"S. aureus Russell; Broth, S. aureus Russell, read-out: MIC",1.6 µg/mL
same,MIC,"P. morganii 1580; Broth, P. morganii 1580, read-out: MIC",25 µg/mL
same,MIC,"B. subtilis A; Broth, B. subtilis A, read-out: MIC",0.8 µg/mL
same,MIC,"S. sonnei MB11 1967; Broth, S. sonnei MB11 1967, read-out: MIC",50 µg/mL
same,MIC,"S. aureus 1517; Broth, S. aureus 1517, read-out: MIC",25 µg/mL
same,MIC,"P. vulgaris W091; Broth, P. vulgaris W091, read-out: MIC",6.2 µg/mL
same,MIC,"E. coli ESS; Broth, E. coli ESS, read-out: MIC",1.6 µg/mL
same,MIC,"S. typhimurium CT10; Broth, S. typhimurium CT10, read-out: MIC",12.5 µg/mL
C[C@H](O)[C@@H]1C(=O)N2C(C(=O)[O-])=C(S/C=C\C(N)=O)C(C)(C)[C@@H]12.[Na+] (racemic),MIC,S. pyogenes CN10,6.2 µg/mL
same,MIC,S. aureus MB9,25 µg/mL
same,MIC,K. aerogenes T767,50 µg/mL
same,MIC,E. coli JT39,12.5 µg/mL
same,MIC,E. cloacae T753,100 µg/mL
same,MIC,E. coli E96,50 µg/mL
same,MIC,K. aerogenes Ba95,50 µg/mL
same,MIC,E. cloacae N1,25 µg/mL
same,MIC,E. coli E8,50 µg/mL
same,MIC,E. coli 0111,50 µg/mL
same,MIC,S. pneumoniae CN 33,50 µg/mL
same,Relative Stability,[1],6.9
same,MIC,P. mirabilis 977; 977,25 µg/mL
same,MIC,P. rettgeri Wm16; WM16,25 µg/mL
same,MIC,S. aureus Oxford,6.2 µg/mL
same,MIC,K. aerogenes A,6.2 µg/mL
same,MIC,C. freundii E8; E8,25 µg/mL
same,MIC,S. aureus Russell,3.1 µg/mL
same,MIC,P. morganii 1580; 1580,25 µg/mL
same,MIC,B. subtilis A,1.6 µg/mL
same,MIC,S. sonnei MB11 1967,25 µg/mL
same,MIC,S. aureus 1517; 1517,25 µg/mL
same,MIC,P. vulgaris W091; W091,25 µg/mL
same,MIC,E. coli ESS,3.1 µg/mL
same,MIC,S. typhimurium CT10; TYPHIMURIUM,50 µg/mL
same,Relative Stability,[2],10.8
